Reference: PubChem BioAssay AID192 (DTP/NCI, 2004)
“And” between values parts separate entries of the source, which are not always exact repeats. Equal values may be shown once. Inconclusive results and toxic doses are left out.

Tested on: BDF1 mice, B16 melanoma ip, median survival T/C
Assay: NCI In Vivo Anticancer Drug Screen. Data for tumor model B16 Melanoma (intraperitoneal) in B6D2F1 (BDF1) mice
Settings: endpoint: median survival time, higher = longer survival
Procedure, shortened: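 Values are ratios of treated (T) to vehicle-control (C) measurements of survival or tumor size in tumor-bearing mice.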

[1] = dose: 12.5 mg/kg/injection, schedule: Q01DX009 (ip), vehicle: saline with Tween-80
[2] = dose: 25.0 mg/kg/injection, schedule: Q01DX009 (ip), vehicle: saline with Tween-80
[3] = dose: 100.0 mg/kg/injection, schedule: Q01DX009 (ip), vehicle: saline with Tween-80
[4] = dose: 200.0 mg/kg/injection, schedule: Q01DX009 (ip), vehicle: saline with Tween-80
[5] = dose: 25.0 mg/kg/injection, schedule: Q01DX009 (ip), vehicle: Klucel (hydroxypropylcellulose) (HPC)
[6] = dose: 50.0 mg/kg/injection, schedule: Q01DX009 (ip), vehicle: Klucel (hydroxypropylcellulose) (HPC)
[7] = dose: 50.0 mg/kg/injection, schedule: Q01DX009 (ip), vehicle: saline with Tween-80
[8] = dose: 50.0 mg/kg/injection, schedule: Q01DX009 (ip), vehicle: saline
[9] = dose: 6.25 mg/kg/injection, schedule: Q01DX009 (ip), vehicle: saline
[10] = dose: 25.0 mg/kg/injection, schedule: Q01DX009 (ip), vehicle: saline
[11] = dose: 100.0 mg/kg/injection, schedule: Q01DX009 (ip), vehicle: Klucel (hydroxypropylcellulose) (HPC)
[12] = dose: 200.0 mg/kg/injection, schedule: Q01DX009 (ip), vehicle: Klucel (hydroxypropylcellulose) (HPC)

For `Cc1n(CC(C)C)c2c([n+]1CC(=O)c1ccc([N+](=O)[O-])cc1)C(=O)c1ccccc1C2=O`, the T/C (dose: 0.1 mg/kg/injection, schedule: Q01DX009 (ip), vehicle: saline) was 95 % of control, the T/C (dose: 0.2 mg/kg/injection, schedule: Q01DX009 (ip), vehicle: saline) was 97 % of control and the T/C (dose: 0.4 mg/kg/injection, schedule: Q01DX009 (ip), vehicle: saline) was 97 % of control. The T/C (dose: 0.8 mg/kg/injection, schedule: Q01DX009 (ip), vehicle: saline) was 88 % of control, the T/C (dose: 1.2 mg/kg/injection, schedule: Q01DX009 (ip), vehicle: Klucel (hydroxypropylcellulose) (HPC)) was 93 % of control and the T/C (dose: 1.25 mg/kg/injection, schedule: Q01DX009 (ip), vehicle: saline with Tween-80) was 86 % of control. For the same compound, the T/C (dose: 1.8 mg/kg/injection, schedule: Q01DX009 (ip), vehicle: Klucel (hydroxypropylcellulose) (HPC)) was 93 % of control, the T/C (dose: 2.5 mg/kg/injection, schedule: Q01DX009 (ip), vehicle: saline with Tween-80) was 86 % of control and the T/C (dose: 3.0 mg/kg/injection, schedule: Q01DX009 (ip), vehicle: Klucel (hydroxypropylcellulose) (HPC)) was 87 % of control. The T/C (dose: 5.0 mg/kg/injection, schedule: Q01DX009 (ip), vehicle: Klucel (hydroxypropylcellulose) (HPC)) was 93 % of control.

In the case of `Cc1ccc(NC(=O)CCl)cc1C`, the T/C (dose: 6.25 mg/kg/injection, schedule: Q01DX009 (ip), vehicle: saline with Tween-80) is reported as 102 % of control, the T/C [1] is reported as 100 % of control and the T/C [2] is reported as 95 % of control. For the same compound, the T/C [3] was 95 % of control and the T/C [4] was 95 % of control.

`O=C1C(N2CCN(CCO)CC2)=C(N2CC2)C(=O)C(N2CCN(CCO)CC2)=C1N1CC1` was tested, and the T/C (dose: 0.25 mg/kg/injection, schedule: Q01DX009 (ip), vehicle: saline) was 122 % of control, the T/C (dose: 0.5 mg/kg/injection, schedule: Q01DX009 (ip), vehicle: saline) was 122 % of control and the T/C (dose: 1.0 mg/kg/injection, schedule: Q01DX009 (ip), vehicle: saline) was 109 % of control.

For `Cc1ccc(C(C)(C)C[P+](C)(c2ccccc2)c2ccccc2)cc1`, the T/C (dose: 6.25 mg/kg/injection, schedule: Q01DX009 (ip), vehicle: Klucel (hydroxypropylcellulose) (HPC)) was 90 % of control, the T/C (dose: 12.5 mg/kg/injection, schedule: Q01DX009 (ip), vehicle: Klucel (hydroxypropylcellulose) (HPC)) was 94 % of control and the T/C [5] was 99 % of control. The T/C [6] was 93 % of control.

For `OC1CCCC2CCCNC12` (stereo not given) (tested in a mixture with another compound), the T/C [2] was 90 % of control, the T/C [7] was 95 % of control and the T/C [3] was 86 % of control.

For `C1CC2(CCN1)SSC1(CCNCC1)S2`, the T/C (dose: 100.0 mg/kg/injection, schedule: Q04DX003 (ip), vehicle: saline) was 100 % of control and the T/C (dose: 200.0 mg/kg/injection, schedule: Q04DX003 (ip), vehicle: saline) was 100 % of control.

With `CCSc1nc(C)cc(Cl)n1` the T/C [7] was 100 % of control, the T/C [3] was 104 % of control and the T/C [4] was 88 % of control.

`CN(C)N=Nc1ccc(S(=O)(=O)Nc2ncccn2)cc1` was tested, and the T/C [1] was 108 % of control, the T/C (dose: 14.7 mg/kg/injection, schedule: Q01DX009 (ip), vehicle: saline with Tween-80) was 110 % of control and the T/C (dose: 22.0 mg/kg/injection, schedule: Q01DX009 (ip), vehicle: saline with Tween-80) was 116 % of control. The T/C [2] was 123 % of control, the T/C (dose: 33.0 mg/kg/injection, schedule: Q01DX009 (ip), vehicle: saline with Tween-80) was 106 % of control and 123 % of control and the T/C (dose: 75.0 mg/kg/injection, schedule: Q01DX009 (ip), vehicle: saline with Tween-80) was 115 % of control.

In the case of `COP(=O)(OC)OCc1cnc(SC)nc1N`, the T/C [8] is reported as 121 % of control and the T/C (dose: 100.0 mg/kg/injection, schedule: Q01DX009 (ip), vehicle: saline) is reported as 100 % of control.

For `COc1ccc2c(ccc[n+]2C)c1`, the T/C [9] was 93 % of control, the T/C (dose: 12.5 mg/kg/injection, schedule: Q01DX009 (ip), vehicle: saline) was 90 % of control and the T/C (dose: 12.5 mg/kg/injection, schedule: Q04DX003 (ip), vehicle: saline) was 100 % of control. For the same compound, the T/C [10] was 95 % of control, the T/C (dose: 25.0 mg/kg/injection, schedule: Q04DX003 (ip), vehicle: saline) was 100 % of control and the T/C (dose: 50.0 mg/kg/injection, schedule: Q04DX003 (ip), vehicle: saline) was 104 % of control.

`CCNc1nc(NC(C)C)nc(SC)n1` was tested, and the T/C [7] was 117 % of control, the T/C [3] was 106 % of control and the T/C [4] was 104 % of control.

With `CC1CC(C)(O)CC(C(O)CC2CC(=O)NC(=O)C2)C1=O` (stereo not given) the T/C (dose: 0.98 mg/kg/injection, schedule: Q04DX003 (ip), vehicle: saline) was 111 % of control, the T/C (dose: 1.4 mg/kg/injection, schedule: Q04DX003 (ip), vehicle: saline) was 100 % of control and the T/C (dose: 2.0 mg/kg/injection, schedule: Q04DX003 (ip), vehicle: saline) was 91 % of control. For the same compound, the T/C (dose: 2.86 mg/kg/injection, schedule: Q04DX003 (ip), vehicle: saline) was 102 % of control.

`CC(COCc1ccccc1)NCc1ccccc1` (stereo not given) was tested, and the T/C [5] was 96 % of control and the T/C [6] was 90 % of control.

With `O=C1NC(=O)/C(=C/C=C/c2ccccc2)S1` the T/C [1] was 99 % of control and 114 % of control, the T/C [2] was 97 % of control and 115 % of control and the T/C [7] was 99 % of control and 103 % of control. The T/C [3] was 99 % of control and 108 % of control, the T/C [4] was 114 % of control and the T/C (dose: 400.0 mg/kg/injection, schedule: Q01DX009 (ip), vehicle: saline with Tween-80) was 98 % of control.

For `CCN(CC)c1nc(N(CC)CC)nc(N(CC)CC)n1`, the T/C [2] was 89 % of control and the T/C [7] was 94 % of control.

With `O.O.[NH-]C1CCCCC1[NH-].[Pt+2]` (stereo not given) the T/C (dose: 0.62 mg/kg/injection, schedule: Q01DX009 (ip), vehicle: dextrose) was 91 % of control and 111 % of control, the T/C (dose: 1.25 mg/kg/injection, schedule: Q01DX009 (ip), vehicle: dextrose) was 118 % of control and the T/C (dose: 1.25 mg/kg/injection, schedule: Q01DX009 (ip), vehicle: other) was 120 % of control. The T/C (dose: 2.5 mg/kg/injection, schedule: Q01DX009 (ip), vehicle: dextrose) was 124 % of control, the T/C (dose: 2.5 mg/kg/injection, schedule: Q01DX009 (ip), vehicle: other) was 120 % of control and the T/C (dose: 10.0 mg/kg/injection, schedule: Q01DX009 (ip), vehicle: other) was 155 % of control.

`CCOc1ccccc1NC(=O)c1ccccc1Cl` was tested, and the T/C [11] was 106 % of control, the T/C [12] was 106 % of control and the T/C (dose: 400.0 mg/kg/injection, schedule: Q01DX009 (ip), vehicle: Klucel (hydroxypropylcellulose) (HPC)) was 93 % of control.

`CCCCOC(=O)C(C)OC(=O)CCC` (stereo not given) was tested, and the T/C [5] was 112 % of control, the T/C [6] was 108 % of control and the T/C [11] was 104 % of control. For the same compound, the T/C [12] was 122 % of control.

In the case of `CC[n+]1c(C)ccc2ccccc21`, the T/C (dose: 25.0 mg/kg/injection, schedule: Q01DX009 (ip), vehicle: carboxymethylcellulose (CMC)) is reported as 112 % of control and the T/C (dose: 50.0 mg/kg/injection, schedule: Q01DX009 (ip), vehicle: carboxymethylcellulose (CMC)) is reported as 96 % of control.

`COC12C(COC(=O)NCCO)C3=C(C(=O)C(C)=C(N)C3=O)N1CC1NC12` (stereo not given) was tested, and the T/C (dose: 1.56 mg/kg/injection, schedule: Q01DX009 (ip), vehicle: Klucel (hydroxypropylcellulose) (HPC)) was 98 % of control, the T/C (dose: 3.12 mg/kg/injection, schedule: Q01DX009 (ip), vehicle: Klucel (hydroxypropylcellulose) (HPC)) was 116 % of control and 120 % of control and 124 % of control and the T/C [9] was 119 % of control. The T/C [5] was 88 % of control and 180 % of control and 209 % of control and the T/C [10] was 94 % of control.

`O=c1ncccn1[C@@H]1O[C@H](CO)[C@H](O)C1O` (stereo not given in full) was tested, and the T/C [10] was 119 % of control, the T/C [8] was 115 % of control and the T/C (dose: 400.0 mg/kg/injection, schedule: Q01DX009 (ip), vehicle: saline) was 166 % of control.

For `C=C(CCC(C(=O)O)C1CCC2(C)C3=C(CCC12C)C1(C)CCC(O)C(C)(C)C1CC3)C(C)C` (stereo not given), the T/C (dose: 20.0 mg/kg/injection, schedule: Q01DX009 (sc), vehicle: steriod suspending solution) was 98 % of control, the T/C (dose: 40.0 mg/kg/injection, schedule: Q01DX009 (sc), vehicle: steriod suspending solution) was 105 % of control and the T/C (dose: 80.0 mg/kg/injection, schedule: Q01DX009 (sc), vehicle: steriod suspending solution) was 101 % of control. For the same compound, the T/C (dose: 160.0 mg/kg/injection, schedule: Q01DX009 (sc), vehicle: steriod suspending solution) was 92 % of control, the T/C (dose: 165.0 mg/kg/injection, schedule: Q01DX009 (sc), vehicle: steriod suspending solution) was 94 % of control and the T/C (dose: 250.0 mg/kg/injection, schedule: Q01DX009 (sc), vehicle: steriod suspending solution) was 102 % of control.
